Source: US8642774B2, “Compounds” (Boehringer Ingelheim International GmbH, priority 2011, dated 2014)

Molecular target: T1, human recombinant mGluR5 (Homo sapiens, UniProt P41594)
T1 construct: expressed in transfected cells; host or cells: HEK 293 cell line, cultured with tetracycline, hygromycin and geneticin; tetracycline is withdrawn 3-7 days before the assay
Test: positive modulation of mGluR5, calcium based FLIPR assay
Format: cell-based
Details: EC50 of the modulation; HEK 293 cell line expressing human recombinant mGluR5; peak height of Ca fluorescence signal after glutamate at approx. 5% basal stimulation; read-out: EC50
In short: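 HEK 293 cells expressing human recombinant mGluR5, tetracycline-free before assay, loaded with Calcium-4 dye in Ringer solution pH 7.4. Compounds (1% DMSO final) added for 5 min, then glutamate at about 5% of maximal effect; FLIPR peak Ca signal scaled between 1% DMSO (100%) and 10 μM CDPPB (200%) controls, EC50 by nonlinear regression.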

T1 sequence (P41594 21-1212): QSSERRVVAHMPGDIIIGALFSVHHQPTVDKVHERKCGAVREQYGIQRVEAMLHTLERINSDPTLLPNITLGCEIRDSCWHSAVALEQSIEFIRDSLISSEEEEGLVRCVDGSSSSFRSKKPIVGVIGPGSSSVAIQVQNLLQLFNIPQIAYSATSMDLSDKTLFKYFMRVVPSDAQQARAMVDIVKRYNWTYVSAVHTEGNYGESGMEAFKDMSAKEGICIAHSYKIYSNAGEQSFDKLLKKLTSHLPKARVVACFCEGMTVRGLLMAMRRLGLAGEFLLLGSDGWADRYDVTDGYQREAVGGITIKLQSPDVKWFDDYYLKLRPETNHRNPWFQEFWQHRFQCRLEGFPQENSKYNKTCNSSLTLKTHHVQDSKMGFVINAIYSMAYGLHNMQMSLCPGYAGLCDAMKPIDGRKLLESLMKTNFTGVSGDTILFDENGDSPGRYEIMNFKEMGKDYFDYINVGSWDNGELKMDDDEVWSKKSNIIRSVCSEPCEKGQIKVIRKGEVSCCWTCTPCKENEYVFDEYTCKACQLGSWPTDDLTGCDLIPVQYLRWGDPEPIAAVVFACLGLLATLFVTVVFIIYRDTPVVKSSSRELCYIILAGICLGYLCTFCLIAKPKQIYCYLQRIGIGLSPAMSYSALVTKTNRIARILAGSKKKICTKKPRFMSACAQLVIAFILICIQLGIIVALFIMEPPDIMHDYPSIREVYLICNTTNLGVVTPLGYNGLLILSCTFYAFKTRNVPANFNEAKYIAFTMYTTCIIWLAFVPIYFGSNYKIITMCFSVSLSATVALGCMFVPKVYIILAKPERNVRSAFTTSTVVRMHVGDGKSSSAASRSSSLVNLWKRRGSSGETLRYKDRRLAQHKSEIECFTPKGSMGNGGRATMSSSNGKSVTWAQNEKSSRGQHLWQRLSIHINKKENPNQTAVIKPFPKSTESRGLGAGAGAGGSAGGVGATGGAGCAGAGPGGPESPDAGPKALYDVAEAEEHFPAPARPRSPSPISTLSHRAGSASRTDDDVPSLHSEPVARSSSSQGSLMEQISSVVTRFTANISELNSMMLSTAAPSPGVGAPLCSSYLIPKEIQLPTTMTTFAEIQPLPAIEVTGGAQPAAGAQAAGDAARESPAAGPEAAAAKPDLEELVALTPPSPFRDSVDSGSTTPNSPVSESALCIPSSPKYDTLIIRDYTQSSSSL

EC50	Compound
0.481 µM	CCCc1nc(-c2ccc(OC(F)F)cc2)nn1CC(=O)N1CCN(c2noc(C)n2)CC1 [Example 7.03.130]
0.09 µM	CCCCCc1nc(-c2ccc(F)c(C)c2)nn1CC(=O)N1CCc2nc(N)sc2CC1 [Example 7.03.111.]
0.413 µM	CCc1nc(-c2ccc(F)c(C)c2)nn1CC(=O)N1CCc2nc(C)sc2CC1 [Example 7.03.081.]
1.4 µM	O=C(Cn1nc(-c2ccc(F)cc2)nc1-c1ccc(F)cc1)N1CCC(OCC2CC2)CC1 [Example 7.02.06.]
0.338 µM	COc1ccc(-c2nc(-c3ccccc3)n(CC(=O)N3Cc4nc(C)sc4C3)n2)cc1 [Example 7.03.050.]
0.987 µM	COc1cc(C2CCN(C(=O)Cn3nc(-c4ccc(F)cc4)nc3-c3ccc(F)cc3)CC2)ncn1 [Example 7.03.026.]
0.18 µM	Cc1cc(-c2nc(-c3ccccc3)n(CC(=O)N3CCc4ccc(N)cc4CC3)n2)ccc1F [Example 7.02.88.]
0.734 µM	O=C(Cn1nc(-c2ccc(F)cc2)nc1-c1ccc(F)cc1)N1CCN(c2ccccc2)C(=O)C1 [Example 7.03.010.]
1.71 µM	O=C(Cn1nc(-c2ccc(F)cc2)nc1-c1ccc(F)cc1)N1CCN(C2=NCCCS2)CC1 [Example 7.05.01., 2-(3,5-bis-(4-Fluoro-phenyl)-(1,2,4)triazol-1-yl]-1-[4-(5,6-dihydro-4H-(1,3)thiazin-2-yl)-piperazin-1-yl]-ethanone]
1 µM	Nc1nnc(C2CCN(C(=O)Cn3nc(-c4ccc(F)cc4)nc3-c3ccc(F)cc3)CC2)o1 [Example 7.02.45.]
0.155 µM	Cc1nc2c(s1)CCN(C(=O)Cn1nc(-c3ccc(F)c(C)c3)nc1C1CCCCC1)CC2 [Example 7.03.062.]
0.115 µM	Cc1nc2c(s1)CN(C(=O)Cn1nc(-c3ccc(F)c(C)c3)nc1-c1ccccc1)CC2 [Example 7.02.84.]
0.04 µM	Cc1nc2c(s1)CCN(C(=O)Cn1nc(-c3ccc(OC(F)F)cc3)nc1-c1ccccc1)CC2 [Example 7.03.127]
0.097 µM	COc1cc(C2=CCN(C(=O)Cn3nc(-c4ccc(F)cc4)nc3-c3ccc(F)cc3)CC2)ncn1 [Example 7.03.025.]
0.976 µM	O=C(Cn1nc(-c2ccc(F)cc2)nc1-c1ccc(F)cc1)N1CCC(c2ccccn2)C1 (stereo not shown) [Example 7.02.64.]
0.201 µM	CCc1nc(-c2ccc(OC(F)F)cc2)nn1CC(=O)N1CCc2nc(C)sc2CC1 [Example 7.03.126]
0.309 µM	COC(=O)c1ccc2c(c1)CCN(C(=O)Cn1nc(-c3ccc(F)cc3)nc1-c1ccc(F)cc1)C2 [Example 7.02.33.]
1.06 µM	O=C(Cn1nc(-c2ccc(F)cc2)nc1-c1ccc(F)cc1)N1CCC(C(O)c2ccccc2)CC1 (stereo not shown) [Example 7.03.004.]
0.907 µM	O=C(Cn1nc(-c2ccc(F)cc2)nc1-c1ccc(F)cc1)N1CCC(c2nnco2)CC1 [Example 7.03.034.]
1.01 µM	O=C(Cn1nc(-c2ccc(F)cc2)nc1-c1ccc(F)cc1)N1Cc2nc(-c3ccccc3)sc2C1 [Example 7.02.63.]
0.323 µM	Cc1cc(-c2nc(-c3ccccc3)n(CC(=O)N3CCc4ncnc(-c5ccccc5)c4CC3)n2)ccc1F [Example 7.02.80.]
1.64 µM	O=C(Cn1nc(-c2ccc(F)cc2)nc1-c1ccc(F)cc1)N1CCc2ncsc2C1 [Example 7.02.43.]
0.133 µM	O=C(Cn1nc(-c2ccc(F)cc2)nc1-c1ccc(F)cc1)N1CCc2cccnc2CC1 [Example 7.02.67.]

EC50	Compound
0.311 µM	COc1cc2c(cc1OC)CCN(C(=O)Cn1nc(-c3ccc(F)cc3)nc1-c1ccc(F)cc1)CC2 [Example 7.02.62.]
0.472 µM	O=C(Cn1nc(-c2ccc(F)cc2)nc1-c1ccc(F)cc1)N1CCC(c2ccon2)CC1 [Example 7.02.52.]
0.033 µM	COc1nc2c(s1)CCN(C(=O)Cn1nc(-c3ccc(F)c(C)c3)nc1-c1ccccc1)CC2 [Example 7.02.85.]
0.232 µM	CC(=O)Nc1nc2c(s1)CCN(C(=O)Cn1nc(-c3ccc(F)c(C)c3)nc1-c1ccccc1)CC2 [Example 7.02.77.]
0.889 µM	Cc1nc2c(s1)CCN(C(=O)Cn1nc(-c3ccc(F)cc3)nc1-c1ccc(F)cn1)CC2 [Example 7.03.117.]
0.305 µM	N#Cc1cccc(N2CCN(C(=O)Cn3nc(-c4ccc(F)cc4)nc3-c3ccc(F)cc3)CC2=O)c1 [Example 7.03.015.]
0.214 µM	O=C(Cn1nc(-c2ccc(F)cc2)nc1-c1ccc(F)cc1)N1Cc2ccc(O)cc2C1 [Example 7.02.58.]
0.885 µM	O=C(Cn1nc(-c2ccc(F)cc2)nc1-c1ccc(F)cc1)N1CCN(C2=NCCO2)CC1 [Example 7.03.042.]
0.678 µM	O=C(Cn1nc(-c2ccc(F)cc2)nc1-c1ccc(F)cc1)N1CCc2nc(N3CCCC3)sc2CC1 [Example 7.04.01., 2-[3,5-bis-(4-Fluoro-phenyl)-(1,2,4)triazol-1-yl)-1-(2-pyrrolidin-1-yl-4,5,7,8-tetrahydro-thiazolo[4,5-d]azepin-6-yl)-ethanone]
0.096 µM	CCc1nnc(N2CCN(C(=O)Cn3nc(-c4ccc(F)cc4)nc3-c3ccc(F)cc3)CC2)o1 [Example 7.03.044.]
0.504 µM	C=CCNC(=O)Nc1nc2c(s1)CN(C(=O)Cn1nc(-c3ccc(F)cc3)nc1-c1ccc(F)cc1)CC2 [Example 7.02.29.]
0.965 µM	O=C(Cn1nc(-c2ccc(F)cc2)nc1-c1ccc(F)cc1)N1CCc2cccc(F)c2C1 [Example 7.02.10.]
0.049 µM	Cc1cnc(C2=CCN(C(=O)Cn3nc(-c4ccc(F)cc4)nc3-c3ccc(F)cc3)CC2)o1 [Example 7.03.036.]
0.019 µM	Cc1nc(N2CCN(C(=O)Cn3nc(-c4ccc(OC(F)F)cc4)nc3-c3ccccc3)CC2)no1 [Example 7.03.135]
0.056 µM	O=C(Cn1nc(-c2ccc(F)cc2)nc1-c1ccc(F)cc1)N1CC=C(c2ncccn2)CC1 [Example 7.03.022.]
0.329 µM	CC1CN(c2ncccn2)CCN1C(=O)Cn1nc(-c2ccc(F)cc2)nc1-c1ccc(F)cc1 (stereo not shown) [Example 7.03.119.]
0.139 µM	CC(C)c1nnc(N2CCN(C(=O)Cn3nc(-c4ccc(F)cc4)nc3-c3ccc(F)cc3)CC2)o1 [Example 7.03.043.]
0.054 µM	COC(=O)c1ccc2c(c1)CCN(C(=O)Cn1nc(-c3ccc(F)c(C)c3)nc1-c1ccccc1)CC2 [Example 7.02.79.]
0.117 µM	COc1ccc(-c2nc(-c3ccc(F)cc3)nn2CC(=O)N2CCc3nc(C)sc3CC2)cc1 [Example 7.03.058.]
0.075 µM	O=C(Cn1nc(-c2ccc(F)cc2)nc1-c1ccc(F)cc1)N1CCC(c2ncco2)CC1 [Example 7.03.038.]
0.278 µM	Cc1nc2c(s1)CN(C(=O)Cn1nc(-c3ccc(F)cc3)nc1-c1ccc(F)cc1)C2 [Example 7.02.23.]
0.379 µM	CCC(C)c1nc(-c2ccc(F)c(C)c2)nn1CC(=O)N1CCc2nc(C)sc2CC1 (stereo not shown) [Example 7.03.086.]
1.06 µM	CNC(=O)Nc1nc2c(s1)CN(C(=O)Cn1nc(-c3ccc(F)cc3)nc1-c1ccc(F)cc1)CC2 [Example 7.02.17.]

EC50	Compound
0.516 µM	O=C(Cn1nc(-c2ccc(F)cc2)nc1-c1ccc(F)cc1)N1CCC(c2nccs2)CC1 [Example 7.02.18.]
0.382 µM	CCCCc1nc(-c2ccc(F)c(C)c2)nn1CC(=O)N1Cc2nc(C)sc2C1 [Example 7.03.101.]
0.511 µM	Cc1noc(C2CCN(C(=O)Cn3nc(-c4ccc(F)cc4)nc3-c3ccc(F)cc3)CC2)n1 [Example 7.02.61.]
0.932 µM	O=C(Cn1nc(-c2ccc(F)cc2)nc1-c1ccc(F)cc1)N1CCC(Oc2ccc3c(c2)OCO3)CC1 [Example 7.02.30.]
0.407 µM	Cc1nc2c(o1)CCN(C(=O)Cn1nc(-c3ccc(F)cc3)nc1-c1ccc(F)cc1)C2 [Example 7.02.65.]
0.798 µM	O=C(Cn1nc(-c2ccc(F)cc2)nc1-c1ccc(F)cc1)N1CCN(c2ncnc3sccc23)CC1 [Example 7.02.74.]
0.226 µM	Cc1nc2c(s1)CCN(C(=O)Cn1nc(-c3ccc(F)c(C)c3)nc1CC(C)C)CC2 [Example 7.03.098.]
1.17 µM	CCCc1nc(-c2ccc(F)c(C)c2)nn1CC(=O)N1Cc2nc(C)sc2C1 [Example 7.03.071.]
0.739 µM	O=C(Cn1nc(-c2ccc(F)cc2)nc1-c1ccc(F)cc1)N1CCC(c2ccccn2)CC1 [Example 7.03.027.]
1.66 µM	O=C(Cn1nc(-c2ccc(F)cc2)nc1-c1ccc(F)cc1)N1CCc2nc(N3CCOCC3)sc2CC1 [Example 7.04.05.]
0.155 µM	Cc1nnc(N2CCN(C(=O)Cn3nc(-c4ccc(F)cc4)nc3-c3ccc(F)cc3)CC2)o1 [Example 7.03.045.]
0.647 µM	Cc1nc2c(s1)CCN(C(=O)Cn1nc(-c3ccc(F)c(C)c3)nc1C)CC2 [Example 7.03.087.]
0.101 µM	O=C(Cn1nc(-c2ccc(F)cc2)nc1-c1ccc(F)cc1)N1CCN(c2cc(F)ccn2)C(=O)C1 [Example 7.03.016.]
0.422 µM	CCCCCc1nc(-c2ccc(F)c(C)c2)nn1CC(=O)N1CCN(c2cccc(OC)c2)C(=O)C1 [Example 7.03.109.]
0.87 µM	Cc1nc2c(s1)CN(C(=O)Cn1nc(-c3ccc(F)c(C)c3)nc1C1CCCC1)C2 [Example 7.03.105.]
0.147 µM	Cc1cc(-c2nc(CCC(C)C)n(CC(=O)N3CCc4nc(N)sc4CC3)n2)ccc1F [Example 7.03.112.]
0.206 µM	Cc1nc2c(o1)CN(C(=O)Cn1nc(-c3ccc(F)cc3)nc1-c1ccc(F)cc1)CC2 [Example 7.02.54.]
0.439 µM	Nc1nc2c(o1)CCN(C(=O)Cn1nc(-c3ccc(F)cc3)nc1-c1ccc(F)cc1)CC2 [Example 7.03.019.]
0.027 µM	Cc1nc2c(o1)CN(C(=O)Cn1nc(-c3ccc(OC(F)F)cc3)nc1-c1ccccc1)C2 [Example 7.03.129]
0.502 µM	Cc1nc2c(s1)CCN(C(=O)Cn1nc(-c3ccc(F)c(C)c3)nc1C1CCC(F)(F)CC1)CC2 [Example 7.03.097.]
0.626 µM	O=C(Cn1nc(-c2ccc(F)cc2)nc1-c1ccc(F)cc1)N1Cc2cccnc2C1 [Example 7.03.020.]
